Measurements published in patent publication US4520112A, “Assay method for organic calcium antagonist drugs and a kit for such an assay” (The Johns Hopkins University, priority 1983, dated 1985).

Test system: calcium channel receptor (bovine cerebral cortex membranes)
Experiment: 3H-nitrendipine binding to cerebral cortex membranes (calcium channel receptor)
Conditions: drug added to human plasma

Structure (SMILES)	effect on 3H-nitrendipine binding
COCCOC(=O)C1=C(C)NC(C)=C(C(=O)OC(C)C)C1c1cccc([N+](=O)[O-])c1 (stereo not shown) [Nimodipine, nimodipine]	inhibition
COc1ccc(CCN(C)CCCC2(c3ccc(OC)c(OC)c3)S(=O)(=O)CCCS2(=O)=O)cc1OC [tiapamil]	reduction
CC(Cc1ccccc1)NCCC(c1ccccc1)c1ccccc1 (stereo not shown) [prenylamine]	inhibition
COc1ccc([C@@H]2Sc3ccccc3N(CCN(C)C)C(=O)[C@@H]2OC(C)=O)cc1 [diltiazem]	reversal of tiapamil induced reduction

Test system: calcium antagonist receptors
Experiment: not given
Conditions: literature reports; cited from earlier work

Structure (SMILES)	effect on 3H-nitrendipine binding
COc1ccc([C@@H]2Sc3ccccc3N(CCN(C)C)C(=O)[C@@H]2OC(C)=O)cc1 [diltiazem]	interact allosterically with the same receptor site and also reduce ^3 H-nitrendipine binding
COc1ccc(CCN(C)CCCC(C#N)(c2ccc(OC)c(OC)c2)C(C)C)cc1OC (stereo not shown) [verapamil]	interact allosterically with the same receptor site and also reduce ^3 H-nitrendipine binding
COC(=O)C1=C(C)NC(C)=C(C(=O)OC)C1c1ccccc1[N+](=O)[O-] [nifedipine]	compete directly
